Test results reported in patent publication US20050137177A1, “Ester combination local anesthetic” (priority 2003, published 2005).

Key:
[1] = test system: sciatic nerve; assay: Rat sciatic nerve block, onset and offset (withdrawal to pinch, proprioception, motor strength); assay type: in vivo; settings: for duration of sensory block (in words) / onset of sensory block (in words) / duration of full sensory block (until it started to decay): 2% 2-chloroprocaine; for duration of sensory block (in words) / onset of sensory block (in words): 0.22% or 0.5% tetracaine
Procedure: The onset and offset of sciatic nerve block from lidocaine, bupivacaine, tetracaine, and 2-chloroprocaine were examined in studies conducted in rats. Three different modalities were tested: (1) pain (e.g., withdrawal to pinch); (2) proprioception (e.g., the ability to place the paw squarely on the table); and (3) motor strength (e.g., the downward pressure the paw can exert on a scale). In each case, the same volume of local anesthetic agent was tested. The modality of interest was withdrawal to pinch. Each local anesthetic was tested on 5 rats of nearly identical size and age.

[2] = between 1990 and 1997; Medline database; cited from earlier work
[3] = test system: rat peroneal nerve; settings: in vivo; for peroneal total axonal counts (± SEM): 5 days
Description: Sections of rat peroneal nerve were taken for evaluation with light microscopy five days post injection with local anesthetic(s). Specifically, each nerve was sectioned and total axonal counts were taken to assess any axonal loss. Five nerves were examined for each treatment condition. The peroneal axonal counts five days after control (saline), bupivacaine, and 2.3% 2-chloroprocaine/0.17% tetracaine injections were 2063±30 (SEM), 1959±81, and 1993±45, respectively.

[4] = test system: sciatic nerve; settings: rat, in vivo
Description: Sections were also taken across the sciatic nerve five days after injection with local anesthetic(s) and examined for gross pathological injury.

[5] = 0.17% tetracaine + 2.3% 2-chloroprocaine
[6] = 2.0% lidocaine, 0.17% tetracaine + 2.3% 2-chloroprocaine
[7] = withdrawal to pinch, 2.0% lidocaine, 0.5% bupivacaine, 0.17% tetracaine + 2.3% 2-chloroprocaine

SMILES	duration of sensory block (in words) [1, 5]	onset of sensory block (in words) [1, 6]	duration of full sensory block (until it started to decay) [1, 7]	deaths (e.g., heart arrest, myocardial infarction, accidental overdose) [2]	total axonal counts compared with saline controls (in words) [3]	peroneal total axonal counts (± SEM) [3]	onset of sensory block relative to 2.0% lidocaine ([1]; 0.5% bupivacaine vs 2.0% lidocaine)	time to achieve full sensory block (onset) ([1]; withdrawal to pinch, 0.5% bupivacaine, 0.17% tetracaine + 2.3% 2-chloroprocaine, same volume, 5 rats)	light microscopic appearance of sciatic nerve at site of injection [4]	onset of block at the first time point tested ([1]; 2.0% lidocaine, 2 minutes after injection, sensory block, 5 rats)	sensory block achieved ([1]; 0.22% tetracaine)	sensory block achieved ([1]; 0.5% tetracaine)	motor blockade ([1]; tetracaine studies, all animals, data not shown)
CCN(CC)CCOC(=O)c1ccc(N)cc1Cl [2-chloroprocaine]	substantially shorter without co-administration of tetracaine	slower than with co-administration of tetracaine	about 30 minutes	–	–	–	–	–	–	–	–	–	–
CCCCN1CCCCC1C(=O)Nc1c(C)cccc1C (stereo not drawn) [bupivacaine]	–	–	60 min	102 deaths	no significant difference	1959±81	4 times slower	8 min	indistinguishable from saline controls	–	–	–	–
CCN(CC)CC(=O)Nc1c(C)cccc1C [lidocaine]	–	nearly immediate	about 45 minutes	–	significantly reduced	1602±167	–	–	marked edema and neural damage	100%	–	–	–
CCCCNc1ccc(C(=O)OCCN(C)C)cc1 [tetracaine]	dissipated rapidly	slow onset	–	–	–	–	–	–	–	–	less than 60%	less than 60%	complete, prolonged motor blockade
